Test results as given in ChEMBL document CHEMBL1201862, “PubChem BioAssay data set” (2004).
Each block holds one compound with its values, some of them ahead of it. Activity calls are given as the source filed them.

Key:
[1] = molecular target: Dual specificity tyrosine-phosphorylation-regulated kinase 1A (Rattus norvegicus, UniProt Q63470); assay type: biochemical, Homo sapiens
Cytochrome P450 3A4 = Cytochrome P450 3A4 (Homo sapiens, UniProt P08684);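 also: CYP3A4 tested as one member of a cytochrome P450 panel screen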
Cytochrome P450 3A4, sequence (P08684 whole entry): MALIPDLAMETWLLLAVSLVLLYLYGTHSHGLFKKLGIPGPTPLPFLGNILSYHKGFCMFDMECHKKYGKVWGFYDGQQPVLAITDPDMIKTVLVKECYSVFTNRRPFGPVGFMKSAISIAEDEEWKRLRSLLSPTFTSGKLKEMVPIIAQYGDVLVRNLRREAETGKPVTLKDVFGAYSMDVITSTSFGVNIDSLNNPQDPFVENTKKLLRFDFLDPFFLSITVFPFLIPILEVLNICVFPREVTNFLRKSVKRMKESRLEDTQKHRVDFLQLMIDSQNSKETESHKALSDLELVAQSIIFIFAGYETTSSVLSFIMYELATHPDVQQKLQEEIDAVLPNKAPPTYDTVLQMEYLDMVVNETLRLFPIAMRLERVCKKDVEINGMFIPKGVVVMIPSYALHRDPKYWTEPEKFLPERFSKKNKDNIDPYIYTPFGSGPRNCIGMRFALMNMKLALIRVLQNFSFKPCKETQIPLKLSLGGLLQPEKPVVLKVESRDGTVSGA

HEK293 = test: EBV LMP1 TES2 canonical NF-kB signalling blockers – cell-based, HEK293, luciferase, cherry-pick, dose response (AID 588343); assay type: functional; conditions: Homo sapiens
[2] = molecular target: Peroxisome proliferator-activated receptor gamma/Nuclear receptor coactivator 1 (Homo sapiens, UniProt P37231); test: (§1) TR-FRET dose response biochemical High Throughput Screening assay for agonists of the steroid receptor coactivator 1 (SRC-1) recruitment by the peroxisome proliferator-activated receptor gamma (PPAR gamma): non-selective agonists. [Related pubchem assays (depositor defined):AID1300, AID1808, AID504735, AID631]; assay type: protein assay
Peroxisome proliferator-activated receptor gamma/Nuclear receptor coactivator 1, sequence (P37231 whole entry): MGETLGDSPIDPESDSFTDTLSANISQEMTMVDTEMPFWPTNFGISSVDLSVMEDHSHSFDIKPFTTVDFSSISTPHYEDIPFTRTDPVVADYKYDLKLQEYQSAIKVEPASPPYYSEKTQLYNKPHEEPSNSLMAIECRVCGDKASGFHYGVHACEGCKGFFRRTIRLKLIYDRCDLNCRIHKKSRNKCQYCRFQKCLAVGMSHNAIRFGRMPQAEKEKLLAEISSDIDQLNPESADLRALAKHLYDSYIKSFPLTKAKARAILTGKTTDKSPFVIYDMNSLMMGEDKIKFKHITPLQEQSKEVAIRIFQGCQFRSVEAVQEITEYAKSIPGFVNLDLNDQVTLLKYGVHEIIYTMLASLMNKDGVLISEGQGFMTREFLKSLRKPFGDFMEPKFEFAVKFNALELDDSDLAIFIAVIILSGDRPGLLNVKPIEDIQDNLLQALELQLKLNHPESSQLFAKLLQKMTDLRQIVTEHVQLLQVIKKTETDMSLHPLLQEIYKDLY
Peroxisome proliferator-activated receptor gamma/Nuclear receptor coactivator 1, sequence (Q15788 whole entry, further chain): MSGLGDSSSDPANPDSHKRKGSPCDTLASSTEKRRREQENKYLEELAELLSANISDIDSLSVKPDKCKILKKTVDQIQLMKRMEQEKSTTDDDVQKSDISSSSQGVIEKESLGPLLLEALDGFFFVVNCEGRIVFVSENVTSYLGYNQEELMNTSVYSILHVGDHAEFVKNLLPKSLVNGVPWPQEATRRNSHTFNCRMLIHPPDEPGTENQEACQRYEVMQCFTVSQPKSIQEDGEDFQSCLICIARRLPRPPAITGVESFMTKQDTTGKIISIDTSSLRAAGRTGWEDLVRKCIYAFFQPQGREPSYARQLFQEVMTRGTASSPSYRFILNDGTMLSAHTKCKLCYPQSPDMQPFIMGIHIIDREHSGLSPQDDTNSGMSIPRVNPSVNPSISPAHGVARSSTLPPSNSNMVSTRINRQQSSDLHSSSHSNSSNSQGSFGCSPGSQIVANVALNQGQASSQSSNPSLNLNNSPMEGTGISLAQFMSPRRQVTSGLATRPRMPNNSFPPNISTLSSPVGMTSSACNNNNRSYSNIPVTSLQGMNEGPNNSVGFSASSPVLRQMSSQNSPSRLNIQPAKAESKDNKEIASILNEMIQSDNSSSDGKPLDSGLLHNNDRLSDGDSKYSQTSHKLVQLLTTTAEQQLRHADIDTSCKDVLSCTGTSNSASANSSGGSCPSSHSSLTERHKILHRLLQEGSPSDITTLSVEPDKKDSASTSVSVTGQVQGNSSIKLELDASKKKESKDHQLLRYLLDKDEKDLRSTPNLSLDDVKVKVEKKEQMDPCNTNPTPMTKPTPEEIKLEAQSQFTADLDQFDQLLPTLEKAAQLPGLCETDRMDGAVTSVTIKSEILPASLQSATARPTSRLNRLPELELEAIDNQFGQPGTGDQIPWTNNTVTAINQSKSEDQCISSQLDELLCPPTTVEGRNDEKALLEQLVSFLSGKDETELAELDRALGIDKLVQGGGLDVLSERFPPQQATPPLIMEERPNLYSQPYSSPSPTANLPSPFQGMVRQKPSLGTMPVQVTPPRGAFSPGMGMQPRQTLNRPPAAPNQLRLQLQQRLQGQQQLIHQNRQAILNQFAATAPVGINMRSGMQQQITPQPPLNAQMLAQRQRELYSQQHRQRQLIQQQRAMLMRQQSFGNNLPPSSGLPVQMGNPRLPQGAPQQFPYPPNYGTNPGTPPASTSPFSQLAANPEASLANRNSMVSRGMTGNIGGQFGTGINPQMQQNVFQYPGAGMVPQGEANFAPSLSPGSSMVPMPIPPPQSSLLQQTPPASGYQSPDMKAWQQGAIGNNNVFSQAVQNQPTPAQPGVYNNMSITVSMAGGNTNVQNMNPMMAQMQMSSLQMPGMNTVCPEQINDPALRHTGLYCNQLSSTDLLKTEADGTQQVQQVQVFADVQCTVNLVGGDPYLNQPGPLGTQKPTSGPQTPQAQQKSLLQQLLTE

[3] = molecular target: Peroxisome proliferator-activated receptor gamma/Nuclear receptor coactivator 3 (Homo sapiens, UniProt P37231); test: as §1, with “3 (SRC-3)” for “1 (SRC-1)”, “assays: 1301 (Confirmation screen.), 1048 (Primary screen.)]” for “assays (depositor defined):AID1300, AID1808, AID504735, AID631]”; assay type: functional
Peroxisome proliferator-activated receptor gamma/Nuclear receptor coactivator 3, sequence (P37231 whole entry): as the sequence (P37231 whole entry) above
Peroxisome proliferator-activated receptor gamma/Nuclear receptor coactivator 3, sequence (Q9Y6Q9 whole entry, further chain): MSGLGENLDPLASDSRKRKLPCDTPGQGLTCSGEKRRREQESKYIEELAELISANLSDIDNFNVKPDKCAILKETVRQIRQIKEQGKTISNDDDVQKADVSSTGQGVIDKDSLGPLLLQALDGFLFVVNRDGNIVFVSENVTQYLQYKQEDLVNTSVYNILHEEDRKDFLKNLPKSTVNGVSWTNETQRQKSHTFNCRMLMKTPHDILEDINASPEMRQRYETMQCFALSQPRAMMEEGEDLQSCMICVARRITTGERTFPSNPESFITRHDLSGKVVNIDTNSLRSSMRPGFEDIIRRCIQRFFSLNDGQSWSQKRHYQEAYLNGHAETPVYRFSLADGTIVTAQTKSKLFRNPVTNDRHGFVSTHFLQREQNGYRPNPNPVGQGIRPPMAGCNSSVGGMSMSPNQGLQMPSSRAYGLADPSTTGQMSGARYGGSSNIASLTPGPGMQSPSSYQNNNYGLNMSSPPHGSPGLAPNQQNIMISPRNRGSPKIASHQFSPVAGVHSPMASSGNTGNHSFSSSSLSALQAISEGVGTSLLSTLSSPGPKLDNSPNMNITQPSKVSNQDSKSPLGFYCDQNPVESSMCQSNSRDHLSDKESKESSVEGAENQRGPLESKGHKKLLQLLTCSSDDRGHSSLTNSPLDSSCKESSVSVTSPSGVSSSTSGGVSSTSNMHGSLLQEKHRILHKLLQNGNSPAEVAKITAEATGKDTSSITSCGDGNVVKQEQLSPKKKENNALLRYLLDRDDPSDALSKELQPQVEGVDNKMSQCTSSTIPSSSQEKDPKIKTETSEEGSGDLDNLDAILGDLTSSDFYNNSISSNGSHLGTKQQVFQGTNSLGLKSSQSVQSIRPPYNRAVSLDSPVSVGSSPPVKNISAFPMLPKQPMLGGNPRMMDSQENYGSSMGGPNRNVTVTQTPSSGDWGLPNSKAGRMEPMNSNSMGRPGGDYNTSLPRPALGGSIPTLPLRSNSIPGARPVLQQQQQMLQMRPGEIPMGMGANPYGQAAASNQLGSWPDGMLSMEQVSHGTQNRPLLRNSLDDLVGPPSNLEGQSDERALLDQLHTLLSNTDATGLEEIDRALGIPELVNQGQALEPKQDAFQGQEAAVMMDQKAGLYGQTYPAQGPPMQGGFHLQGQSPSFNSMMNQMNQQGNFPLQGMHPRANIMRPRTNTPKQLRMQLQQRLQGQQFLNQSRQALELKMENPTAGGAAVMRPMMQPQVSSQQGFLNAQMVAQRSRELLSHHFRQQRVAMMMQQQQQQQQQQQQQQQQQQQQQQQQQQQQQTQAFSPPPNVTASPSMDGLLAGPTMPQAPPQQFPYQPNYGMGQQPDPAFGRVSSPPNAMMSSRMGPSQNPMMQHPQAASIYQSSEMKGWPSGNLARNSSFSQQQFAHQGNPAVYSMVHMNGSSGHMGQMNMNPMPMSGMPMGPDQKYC

[4] = molecular target: Peroxisome proliferator-activated receptor gamma/Nuclear receptor coactivator 2 (Homo sapiens, UniProt P37231); test: TR-FRET dose response biochemical High Throughput Screening assay for agonists of the steroid receptor coactivator 2 (SRC-2) recruitment by the peroxisome proliferator-activated receptor gamma (PPAR gamma): non-selective agonists. [Related pubchem assays: 1297, 1032 ]; assay type: functional
[5] = molecular target: DNA damage-inducible transcript 3 protein (Mus musculus, UniProt P35639); assay type: functional, Cricetulus griseus
DNA damage-inducible transcript 3 protein, sequence (P35639 whole entry): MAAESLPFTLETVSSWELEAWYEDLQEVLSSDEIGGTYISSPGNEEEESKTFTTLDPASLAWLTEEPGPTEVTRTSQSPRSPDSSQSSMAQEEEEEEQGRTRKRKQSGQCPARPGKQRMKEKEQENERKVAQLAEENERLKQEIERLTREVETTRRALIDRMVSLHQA

Protein skinhead-1 = molecular target: T1, Protein skinhead-1 (Caenorhabditis elegans, UniProt P34707); assay type: functional
T1 sequence (P34707 whole entry): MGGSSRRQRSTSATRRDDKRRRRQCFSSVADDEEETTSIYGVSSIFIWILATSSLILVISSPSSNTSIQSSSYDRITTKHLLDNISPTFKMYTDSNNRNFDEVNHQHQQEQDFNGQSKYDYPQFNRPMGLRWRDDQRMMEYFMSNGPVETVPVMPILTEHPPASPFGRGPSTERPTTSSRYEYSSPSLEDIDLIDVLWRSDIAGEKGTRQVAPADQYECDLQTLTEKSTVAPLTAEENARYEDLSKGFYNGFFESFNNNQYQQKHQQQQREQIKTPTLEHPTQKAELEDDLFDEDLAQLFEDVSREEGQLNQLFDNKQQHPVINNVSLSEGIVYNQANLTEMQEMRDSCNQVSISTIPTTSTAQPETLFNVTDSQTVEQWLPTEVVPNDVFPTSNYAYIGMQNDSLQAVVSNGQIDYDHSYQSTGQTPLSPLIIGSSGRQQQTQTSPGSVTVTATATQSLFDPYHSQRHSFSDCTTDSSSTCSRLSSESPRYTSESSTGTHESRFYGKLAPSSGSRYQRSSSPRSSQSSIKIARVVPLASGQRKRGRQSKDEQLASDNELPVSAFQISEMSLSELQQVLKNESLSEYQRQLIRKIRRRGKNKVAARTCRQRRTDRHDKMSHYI

Cytochrome P450 1A2 = molecular target: T2, Cytochrome P450 1A2 (Homo sapiens, UniProt P05177);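 also: PubChem cytochrome P450 panel assay, CYP1A2 panel member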
T2 sequence (P05177 whole entry): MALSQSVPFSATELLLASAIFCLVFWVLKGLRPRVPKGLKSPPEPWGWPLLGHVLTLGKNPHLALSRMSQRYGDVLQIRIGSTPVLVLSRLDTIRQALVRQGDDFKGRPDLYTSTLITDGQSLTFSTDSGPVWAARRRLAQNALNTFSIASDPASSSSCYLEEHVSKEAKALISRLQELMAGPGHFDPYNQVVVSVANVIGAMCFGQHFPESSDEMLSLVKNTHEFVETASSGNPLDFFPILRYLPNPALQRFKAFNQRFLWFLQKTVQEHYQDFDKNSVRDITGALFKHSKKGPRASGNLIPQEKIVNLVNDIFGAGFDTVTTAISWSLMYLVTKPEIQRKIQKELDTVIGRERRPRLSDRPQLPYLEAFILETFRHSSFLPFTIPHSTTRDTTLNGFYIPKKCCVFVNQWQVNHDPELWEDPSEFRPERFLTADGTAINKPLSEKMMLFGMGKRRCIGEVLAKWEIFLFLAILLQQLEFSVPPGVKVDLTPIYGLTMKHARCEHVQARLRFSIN

Compound: COc1ccc(/C=C2\SC(=N)NC2=O)cc1
AC50 [1]: 0.038 µM (active)

Compound: C#C[C@@]1(OC(C)=O)CC[C@@H]2[C@@H]3CCC4=C[C@@H](OC(C)=O)CC[C@H]4[C@H]3CC[C@]21C
AC50 (Cytochrome P450 3A4): inconclusive

Compound: COc1cc(O)c2c(=O)c3c(O)c(O)ccc3oc2c1OC
AC50 [1]: 2.06 µM (active)

Compound: CC1(C)Cc2nc3sc4c(SCC(=O)O)ncnc4c3cc2CO1
AC50 (HEK293): 4.58 µM (active) | AC50 [1]: 2.6 µM (active)

Compound: O=C(c1cnccn1)N1CCC2(CC1)CN(c1ccccn1)C2
AC50 (Cytochrome P450 3A4): inconclusive

More lines, main results first:

EC50 [2]: > 79.4 µM (inactive) | EC50 [3]: > 79.4 µM (not active) | EC50 [4]: > 79.4 µM (not active)
Compound: CCn1c(=O)cc(SCC(=O)NCc2ccccn2)c2ccccc21

IC50 (Protein skinhead-1): > 100 µM (inactive)
Compound: COC(=O)CN1C(=S)N(Cc2ccccc2)C(=O)C1CC(=O)Nc1ccc(Br)cc1 (stereo not drawn)
Absolute IC50 (CHOP) [5]: 10 µM

AC50 (Cytochrome P450 3A4): inconclusive | AC50 (Cytochrome P450 1A2): 251 nM (inconclusive)
Compound: Cn1c(=O)c(-c2ccc(Cl)cc2)nc2cnc(Oc3cccc(Cl)c3)nc21
